Measured values from US11214803B2, “Modulators of YAP1 expression” (Ionis Pharmaceuticals, Inc., priority 2019, dated 2022).

Columns and labels:
Type in all cases: in vivo, human
SNU449 xenograft tumor = assay: Tumor volume in SNU449 xenograft tumor model, alone and in combination with sorafenib (second Example 30); settings: SNU449 xenograft, oligonucleotide 50 mg/kg, sorafenib 30 mg/kg orally
Procedure: Modified oligonucleotides described in the studies above were tested in a hepatocellular carcinoma SNU449 xenograft tumor model. […] A control oligonucleotide 792169, described herein above, was also tested.
(§1) Five million SNU449 cells in 30% matrigel were implanted subcutaneously into the fatpads of female NOD.Cg-Prkdcscid II2rgtmlWjl/SzJ mice (from Jackson Laboratory) at 4-6 weeks of age. 43 days post implantation (when tumors had reached approximately 100 mm^3 in size), groups of eight mice each were administered with 50 mg/kg modified oligonucleotide daily for 10 days (loading dose), following which they were administered with 50 mg/kg modified oligonucleotide four times a week for one week, following which they were dosed with 50 mg/kg modified oligonucleotide thrice weekly until the end of the study. […] Animals were sacrificed, and tumors were collected on day 119 post implantation.
Tumor volumes were also measured at the indicated days in the table below.

Yap1 mRNA = Yap1 mRNA levels in SNU449 xenograft tumors, alone and in combination with sorafenib (second Example 30); settings: SNU449 xenograft mice, oligonucleotide 50 mg/kg, sorafenib 30 mg/kg orally, tumors collected day 119 post implantation, relative to PBS
Procedure: Modified oligonucleotides described in the studies above were tested in a hepatocellular carcinoma SNU449 xenograft tumor model. In addition to testing the modified oligonucleotide by itself, combination therapy with sorafenib was also tested. A control oligonucleotide 792169, described herein above, was also tested.
as §1
Yap1 mRNA knockdown in tumors was measured by RT-qPCR as previously described using the Human Yap1 primer-probe set RTS4814. Yap1 mRNA levels were normalized to actin-beta content, as measured by primer probe set RTS5002. Results are presented in the tables below as percent control of the amount of Yap1 mRNA relative to PBS treated animals (% control).

ERK1/2 = assay: Measurement of ERK activation (pERK/ERK) in SNU449 xenograft model with sorafenib (second Example 30); settings: SNU449 xenograft tumors, pERK/ERK relative to PBS control, oligonucleotide 50 mg/kg, sorafenib 30 mg/kg orally
Procedure: Five million SNU449 cells in 30% matrigel were implanted subcutaneously into the fatpads of female NOD.Cg-Prkdcscid II2rgtmlWjl/SzJ mice (from Jackson Laboratory) at 4-6 weeks of age. 43 days post implantation (when tumors had reached approximately 100 mm^3 in size), groups of eight mice each were administered with 50 mg/kg modified oligonucleotide daily for 10 days (loading dose), following which they were administered with 50 mg/kg modified oligonucleotide four times a week for one week, following which they were dosed with 50 mg/kg modified oligonucleotide thrice weekly until the end of the study.
Protein analysis was carried out using standard procedures. […] ERK protein levels were compared to internal control GAPDH. […] The secondary antibody used was donkey anti-rabbit NA934, GE Healthcare. pERK/ERK levels were calculated relative to PBS control to determine % activation of ERK1/2.

CNC(=O)c1cc(Oc2ccc(NC(=O)Nc3ccc(Cl)c(C(F)(F)F)c3)cc2)ccn1 [sorafenib]
Average Tumor Volume (SNU449 xenograft tumor; day 43 post tumor implantation): 112 mm^3 | Average Tumor Volume (SNU449 xenograft tumor; day 46 post tumor implantation): 145 mm^3 | Average Tumor Volume (SNU449 xenograft tumor; day 50 post tumor implantation): 159 mm^3 | Average Tumor Volume (SNU449 xenograft tumor; day 53 post tumor implantation): 173 mm^3 | Average Tumor Volume (SNU449 xenograft tumor; day 57 post tumor implantation): 200 mm^3 | Average Tumor Volume (SNU449 xenograft tumor; day 67 post tumor implantation): 277 mm^3 | Average Tumor Volume (SNU449 xenograft tumor; day 71 post tumor implantation): 249 mm^3 | Average Tumor Volume (SNU449 xenograft tumor; day 75 post tumor implantation): 283 mm^3 | Average Tumor Volume (SNU449 xenograft tumor; day 78 post tumor implantation): 322 mm^3 | Average Tumor Volume (SNU449 xenograft tumor; day 81 post tumor implantation): 391 mm^3 | Average Tumor Volume (SNU449 xenograft tumor; day 85 post tumor implantation): 416 mm^3 | Average Tumor Volume (SNU449 xenograft tumor; day 88 post tumor implantation): 451 mm^3 | Average Tumor Volume (SNU449 xenograft tumor; day 92 post tumor implantation): 508 mm^3 | Average Tumor Volume (SNU449 xenograft tumor; day 94 post tumor implantation): 581 mm^3 | Average Tumor Volume (SNU449 xenograft tumor; day 98 post tumor implantation): 625 mm^3 | Average Tumor Volume (SNU449 xenograft tumor; day 101 post tumor implantation): 685 mm^3 | Average Tumor Volume (SNU449 xenograft tumor; day 105 post tumor implantation): 671 mm^3 | Average Tumor Volume (SNU449 xenograft tumor; day 108 post tumor implantation): 663 mm^3 | Average Tumor Volume (SNU449 xenograft tumor; day 119 post tumor implantation): 747 mm^3 | Yap1 mRNA levels in tumors (Yap1 mRNA): 103 % control | % activation of ERK1/2 (ERK1/2): 142%
